In series [1] the test system is HeLa cell line. The series can be described thus: Cell cycle distribution and apoptosis by propidium iodide staining and flow cytometry. The series is classed as cell-based, human. The method, then: (§1) Telomere length in GCV and ACV treated and untreated cell lines was measured by flow cytometry with a telomere-specific peptide nucleic acid (PNA) probe^23,24. To determine cell cycle distribution, cells were stained with propidium iodide (PI)^23.
(§2) It is important to note that changes were rapid and could be detected after only 14 days of ACV treatment. In contrast, the nucleoside analog, AZT had no effect on telomere length or cell cycle distribution in telomerase positive cells, HeLa and NuTu-19, even at elevated concentrations e.g., 100 µM (data not shown).
(§3) The origin of the cell lines are uterine cervix (HeLa) and epithelial ovarian (NuTu-19). Cells were cultured in D-MEM media supplemented with 10% fetal calf serum at 37° C. in a humidified atmosphere of 5% CO2. For treatment of the cells with GCV, the media was supplemented with 1.5 µM of GCV (Cymevene, Hoffman-La Roche). For treatment of the cells with ACV, the media was supplemented with 3 µM of Aciclovir (Aciclovir, TEVA Pharm. Ind. Ltd, Israel).
(§4) For telomere length measurement by flow cytometry, cells were stained with telomere specific FITC conjugated (C3TA2)3 PNA (Applied Biosystems) probe and contrastained with 0.06 µg/ml PI as described by Rufer, N., Dragowska, W., Thornbury G., Roosnek, B., Lansdorp P. M. Telomere length dynamics in human lymphocyte subpopulations […]. Nat. Biotechnol. 16, 743-747 (1998)).

Series [2] relates to telomerase positive cell lines. The series can be described thus: DNA content by PI staining at later stages of treatment. In kind it is cell-based. The following applies: compared to untreated cells, cell line not specified. The method, then:
A rational explanation of this fact is a short telomere induced chromosome end-to-end joining^25.
as §3, §4

For series [3], the system named is HeLa cell line. The series can be described thus: Telomere length by flow cytometry with telomere-specific PNA probe. In kind it is cell-based, human. The method, then:
as §1, §3, §4

The test system of series [4] is NuTu-19 cell line. The series is described as above. In kind it is cell-based. The following applies: for telomere length: NuTu-19, GCV 1.5 μM or ACV 3.0 μM, 14 days. The procedure: as §1, §3, §4
For another series, the system named is NuTu-19 cells. Description: Exemplary in vivo assay: pre-established NuTu-19 tumors in Fischer rats. The following applies: for tumor growth: in drinking water ad libitum, administered 21-28 days to tumor bearing rats. The procedure:
In another embodiment, the reagents and methods of the invention can be used to promote tumor regression in vivo in immunocompetent animals carrying pre-established tumors; i.e., the reagents of the invention can be used to treat animals with pre-existing tumors. In this case, the cancerous 10^6 NuTu-19 cells are injected subcutaneously in the flank of the Fischer rats to establish tumors.

For series [5], the system named is NuTu-19 cell line. The series can be described thus: Cell cycle distribution and apoptosis by propidium iodide staining and flow cytometry. In kind it is cell-based. The method, then:
as §1, §2, §3, §4

Another series concerns mammalian cells. As to conditions: short-time exposure, 5 μM, in vitro and in vivo; cited from earlier work.
The conditions of series [6]: single oral dose of 300 mg; cited from earlier work.
For series [7], the system named is telomerase positive cell lines. As to conditions: prolonged exposure, cited from earlier work.
For the next series, the system named is HeLa cells. The series can be described thus: Nude mice injected s.c. with HeLa cells, Valcyte in drinking water. The series is classed as in vivo. The procedure:
Human cancer HeLa cell culture was purchased from ATCC. In all, 12 CD1/-nu and 12 NMRiJI-nu nude mice were purchased from Charles River Laboratories, Charles River Deutschland GmbH. These nude mice were injected s.c. with […] HeLa cells. Experimental group received valganciclovir in drinking water from day 0. Specifically, mice in the experimental groups (6 mice per strain) were exposed to Valcyte (val-ganciclovir) in drinking water (1 mg/ml) from day 0. […] In about 14 days, all mice were bearing the tumors.

Setting [8] is: GCV 1.5 μM or ACV 3.0 μM, 14 days.
Setting [9] is: NuTu-19, GCV 1.5 μM or ACV 3.0 μM, 14 days.
The mark [10] stands for this setting: even at elevated concentrations e.g. 100 μM (data not shown).
Setting [11] is: NuTu-19, even at elevated concentrations e.g. 100 μM (data not shown).

“Also recorded” adds a separate entry of the source. Read-outs that look alike come from different tables or passages of the source.

With `Nc1nc2c(ncn2COCCO)c(=O)[nH]1` [ACV, 9-[2(hydromethoxy)-methyl] guanine], the apoptosis result in the series on HeLa cell line [1] (setting [8]) and in the series with NuTu-19 cell line [5] (setting [9]) was “massive apoptosis” in each case. Also, the cell cycle distribution result with HeLa cell line [1] (setting [8]) was “G2 arrest”; in the series with NuTu-19 cell line [5] (setting [9]) it was “changes in cell cycle; also recorded: G2 arrest”. Further, the “DNA content (PI staining)” value in [2] is recorded as “higher DNA content”. Also, the results for the telomere length entry in the series with HeLa cell line [3] (setting [8]) and in the series with NuTu-19 cell line [4] were “telomere shortening” and “decrease in telomere length; also recorded: telomere shortening”, respectively. For the same compound, in the series on NuTu-19 cells, the tumor growth entry is reported as “retarded tumor growth”.
In the case of `Cc1cn([C@H]2C[C@H](N=[N+]=[N-])[C@@H](CO)O2)c(=O)[nH]c1=O` [AZT, 3′-azido-2′,3′-dideoxythymidine], the “effect on cell cycle distribution” value with HeLa cell line [1] (setting [10]) and in the series with NuTu-19 cell line [5] (setting [11]) was “no effect” each time. The “effect on telomere length” value in the series with HeLa cell line [3] (setting [10]) and with NuTu-19 cell line [4] (setting [11]) was “no effect” each time. Moreover, the “toxic effects on mammalian cells” value in the series on mammalian cells is “induces undesirable toxic effects”. Moreover, the peak serum concentration entry in series [6] is reported as “less than 10 μM”. In addition, the time of absorption in [6] is given as not above 0.5 h. For the same compound, the telomere shortening result in [7] (100 μM (Murakami et al. 1999)) and in series [7] (800 μM (Gomez et al. 1998; Tejera et al. 2001)) was “failed to induce any significant telomere shortening” each time.
Turning to `Nc1nc(O)c2ncn(COC(CO)CO)c2n1` [GCV, ganciclovir], the apoptosis result is reported as “massive apoptosis” in the series on HeLa cell line [1] (1.5 μM GCV, 10 days (FIG. 1)); “massive apoptosis” in the series on HeLa cell line [1] (setting [8]); “massive apoptosis” with NuTu-19 cell line [5] (setting [9]). Further, the cell cycle distribution result in the series with HeLa cell line [1] (1.5 μM GCV, 10 days (FIG. 1, FIG. 3)) is “changes in the cell cycle distribution”; in the series with HeLa cell line [1] (setting [8]) it was “G2 arrest”; with NuTu-19 cell line [5] (NuTu-19, 1.5 μM GCV, 10 days (FIG. 3)), “changes in the cell cycle distribution”; with NuTu-19 cell line [5] (setting [9]), “G2 arrest”. For the same compound, the “DNA content (PI staining)” value in series [2] was “higher DNA content”. In addition, the telomere length entry with HeLa cell line [3] (1.5 μM GCV, 10 days, vs untreated cells (FIG. 1)) is “decrease in telomere length”; in the series with HeLa cell line [3] (setting [8]), “telomere shortening”; in the series with NuTu-19 cell line [4], “telomere shortening”. This compound also yielded a survival in the series with NuTu-19 cells (few weeks after the start of the treatment) of 100%. The tumor growth entry in the series on NuTu-19 cells is “retarded tumor growth”.
In the case of `CC(C)[C@H](N)C(=O)OCC(CO)OCn1cnc2c(=O)nc(N)[nH]c21` (stereo partly drawn) [Valcyte, valganciclovir], the tumor development result in the series with HeLa cells (1 mg/ml in drinking water from day 0, all mice bearing tumors in about 14 days) is “All mice in control and treated groups had developed tumors”. Besides, the tumor regression result with HeLa cells (one mouse from the treated group, by about the 30th day, monotherapy, 1 mg/ml in drinking water) is “this tumor was eliminated”. For the same compound, the tumor growth entry in the series with HeLa cells (other mice in the treated groups, 1 mg/ml in drinking water) is on record as “slowing of tumor growth (stabilization)”.

(Values after patent US8580753B2, “Modulation of telomere length in telomerase positive cells and cancer therapy” (ALT Solutions Inc., priority 2005, dated 2013).)
